Laboratory results reported in US11053204B2, “Pyrimidinyloxy benzene derivatives as herbicides” (FMC Corporation, priority 2015, dated 2021).

How the values were obtained:
Experiment in all cases: Test C postemergence, plant response rating
Format in all cases: in vivo
[1] = tested on: barnyardgrass (Echinochloa crus-galli); conditions: for Plant response rating, Barnyardgrass: scale 0 to 100; for Barnyardgrass plant response rating: scale 0 to 100 (0 no effect, 100 complete control)
How it was run: (§1)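 Both timings shared one formulation, a non-phytotoxic solvent mixture with surfactant, and a greenhouse period of 13 to 15 d. Preemergence used seeded loam/sand or silt loam soil, postemergence used 2 to 18 cm plants; visual ratings ran from 0 (no effect) to 100 (complete control).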

[2] = tested on: blackgrass (Alopecurus myosuroides); conditions: for Plant response rating, Blackgrass: scale 0 to 100; for Blackgrass plant response rating: scale 0 to 100 (0 no effect, 100 complete control)
How it was run: as §1

corn (Zea mays) = conditions: for Corn plant response rating: scale 0 to 100 (0 no effect, 100 complete control)
How it was run: as §1

[3] = tested on: crabgrass, large (large crabgrass, Digitaria sanguinalis); conditions: for Crabgrass, Large plant response rating: scale 0 to 100 (0 no effect, 100 complete control)
How it was run: as §1

[4] = tested on: galium (catchweed bedstraw, Galium aparine); conditions: for Galium plant response rating: scale 0 to 100 (0 no effect, 100 complete control)
How it was run: as §1

kochia (Kochia scoparia) = conditions: for Kochia plant response rating: scale 0 to 100 (0 no effect, 100 complete control)
How it was run: as §1

[5] = tested on: lambsquarters (Chenopodium album); conditions: for Lambsquarters plant response rating: scale 0 to 100 (0 no effect, 100 complete control)
How it was run: as §1

[6] = tested on: nutsedge, yellow (yellow nutsedge, Cyperus esculentus); conditions: for Nutsedge, Yellow plant response rating: scale 0 to 100 (0 no effect, 100 complete control)
How it was run: as §1

[7] = tested on: oat, wild (wild oat Avena fatua); conditions: for Oat, Wild plant response rating: scale 0 to 100 (0 no effect, 100 complete control)
How it was run: as §1

[8] = tested on: oilseed rape (Brassica napus); conditions: for Oilseed Rape plant response rating: scale 0 to 100 (0 no effect, 100 complete control)
How it was run: as §1

[9] = tested on: ragweed (common ragweed, Ambrosia elatior); conditions: for Ragweed plant response rating: scale 0 to 100 (0 no effect, 100 complete control)
How it was run: as §1

[10] = tested on: ryegrass, Italian (Italian ryegrass, Lolium multiflorum); conditions: for Ryegrass, Italian plant response rating: scale 0 to 100 (0 no effect, 100 complete control)
How it was run: as §1

soybean (Glycine max) = conditions: for Soybean plant response rating: scale 0 to 100 (0 no effect, 100 complete control)
How it was run: as §1

[11] = tested on: velvetleaf (Abutilon theophrasti); conditions: for Velvetleaf plant response rating: 125 g ai/ha, scale 0 to 100 (0 no effect, 100 complete control)
How it was run: as §1

[12] = tested on: waterhemp (common waterhemp, Amaranthus rudis); conditions: for Waterhemp plant response rating: 125 g ai/ha, scale 0 to 100 (0 no effect, 100 complete control)
How it was run: as §1

[13] = tested on: wheat (winter wheat, Triticum aestivum); conditions: for Wheat plant response rating: 125 g ai/ha, scale 0 to 100 (0 no effect, 100 complete control)
How it was run: as §1

O=C(CCCCC(F)(F)F)c1c(Br)cccc1Oc1ncc(Cl)cn1 [Compound 82]
Plant response rating, Barnyardgrass ([1]; 16 g ai/ha): 10 | Plant response rating, Barnyardgrass ([1]; 31 g ai/ha): 10 | Barnyardgrass plant response rating ([1]; 62 g ai/ha): 10 | Barnyardgrass plant response rating ([1]; 125 g ai/ha): 60 | Plant response rating, Blackgrass ([2]; 16 g ai/ha): 30 | Plant response rating, Blackgrass ([2]; 31 g ai/ha): 35 | Blackgrass plant response rating ([2]; 62 g ai/ha): 40 | Blackgrass plant response rating ([2]; 125 g ai/ha): 45 | Plant response rating, Corn (corn (Zea mays); 16 g ai/ha, scale of 0 to 100): 20 | Plant response rating, Corn (corn (Zea mays); 31 g ai/ha, scale 0 to 100): 20 | Corn plant response rating (corn (Zea mays); 62 g ai/ha): 25 | Corn plant response rating (corn (Zea mays); 125 g ai/ha): 25 | Plant response rating, Crabgrass, Large ([3]; 16 g ai/ha, scale of 0 to 100): 10 | Plant response rating, Crabgrass, Large ([3]; 31 g ai/ha, scale 0 to 100): 30 | Crabgrass, Large plant response rating ([3]; 62 g ai/ha): 30 | Crabgrass, Large plant response rating ([3]; 125 g ai/ha): 20 | Plant response rating, Galium ([4]; 16 g ai/ha, scale of 0 to 100): 50 | Plant response rating, Galium ([4]; 31 g ai/ha, scale 0 to 100): 75 | Galium plant response rating ([4]; 62 g ai/ha): 85 | Galium plant response rating ([4]; 125 g ai/ha): 90 | Plant response rating, Kochia (kochia (Kochia scoparia); 16 g ai/ha, scale of 0 to 100): 80 | Plant response rating, Kochia (kochia (Kochia scoparia); 31 g ai/ha, scale 0 to 100): 95 | Kochia plant response rating (kochia (Kochia scoparia); 62 g ai/ha): 95 | Kochia plant response rating (kochia (Kochia scoparia); 125 g ai/ha): 95 | Plant response rating, Lambsquarters ([5]; 16 g ai/ha, scale of 0 to 100): 70 | Plant response rating, Lambsquarters ([5]; 31 g ai/ha, scale 0 to 100): 75 | Lambsquarters plant response rating ([5]; 62 g ai/ha): 85 | Lambsquarters plant response rating ([5]; 125 g ai/ha): 90 | Plant response rating, Nutsedge, Yellow ([6]; 16 g ai/ha, scale of 0 to 100): 10 | Plant response rating, Nutsedge, Yellow ([6]; 31 g ai/ha, scale 0 to 100): 10 | Nutsedge, Yellow plant response rating ([6]; 62 g ai/ha): 20 | Nutsedge, Yellow plant response rating ([6]; 125 g ai/ha): 10 | Plant response rating, Oat, Wild ([7]; 16 g ai/ha, scale of 0 to 100): 25 | Plant response rating, Oat, Wild ([7]; 31 g ai/ha, scale 0 to 100): 40 | Oat, Wild plant response rating ([7]; 62 g ai/ha): 40 | Oat, Wild plant response rating ([7]; 125 g ai/ha): 50 | Plant response rating, Oilseed Rape ([8]; 16 g ai/ha, scale of 0 to 100): 70 | Plant response rating, Oilseed Rape ([8]; 31 g ai/ha, scale 0 to 100): 95 | Oilseed Rape plant response rating ([8]; 62 g ai/ha): 95 | Oilseed Rape plant response rating ([8]; 125 g ai/ha): 95 | Plant response rating, Ragweed ([9]; 16 g ai/ha, scale of 0 to 100): 40 | Plant response rating, Ragweed ([9]; 31 g ai/ha, scale 0 to 100): 35 | Ragweed plant response rating ([9]; 62 g ai/ha): 60 | Ragweed plant response rating ([9]; 125 g ai/ha): 55 | Plant response rating, Ryegrass, Italian ([10]; 16 g ai/ha, scale of 0 to 100): 5 | Plant response rating, Ryegrass, Italian ([10]; 31 g ai/ha, scale 0 to 100): 15 | Ryegrass, Italian plant response rating ([10]; 62 g ai/ha): 20 | Ryegrass, Italian plant response rating ([10]; 125 g ai/ha): 25 | Plant response rating, Soybean (soybean (Glycine max); 16 g ai/ha, scale of 0 to 100): 25 | Plant response rating, Soybean (soybean (Glycine max); 31 g ai/ha, scale 0 to 100): 60 | Soybean plant response rating (soybean (Glycine max); 62 g ai/ha): 35 | Soybean plant response rating (soybean (Glycine max); 125 g ai/ha): 40 | Plant response rating, Velvetleaf ([11]; 16 g ai/ha, scale of 0 to 100): 35 | Plant response rating, Velvetleaf ([11]; 31 g ai/ha, scale 0 to 100): 45 | Velvetleaf plant response rating [11]: 75 | Plant response rating, Waterhemp ([12]; 16 g ai/ha, scale of 0 to 100): 65 | Plant response rating, Waterhemp ([12]; 31 g ai/ha, scale 0 to 100): 95 | Waterhemp plant response rating [12]: 95 | Plant response rating, Wheat ([13]; 16 g ai/ha, scale of 0 to 100): 5 | Plant response rating, Wheat ([13]; 31 g ai/ha, scale 0 to 100): 10 | Wheat plant response rating [13]: 30

O=C(CCC(F)(F)F)c1c(Br)cccc1Oc1ncc(Cl)cn1 [Compound 92]
Plant response rating, Barnyardgrass ([1]; 16 g ai/ha): 10 | Plant response rating, Barnyardgrass ([1]; 31 g ai/ha): 10 | Barnyardgrass plant response rating ([1]; 62 g ai/ha): 15 | Barnyardgrass plant response rating ([1]; 125 g ai/ha): 20 | Plant response rating, Blackgrass ([2]; 16 g ai/ha): 5 | Plant response rating, Blackgrass ([2]; 31 g ai/ha): 10 | Blackgrass plant response rating ([2]; 62 g ai/ha): 5 | Blackgrass plant response rating ([2]; 125 g ai/ha): 20 | Plant response rating, Corn (corn (Zea mays); 16 g ai/ha, scale of 0 to 100): 10 | Plant response rating, Corn (corn (Zea mays); 31 g ai/ha, scale 0 to 100): 20 | Corn plant response rating (corn (Zea mays); 62 g ai/ha): 15 | Corn plant response rating (corn (Zea mays); 125 g ai/ha): 20 | Plant response rating, Crabgrass, Large ([3]; 16 g ai/ha, scale of 0 to 100): 20 | Plant response rating, Crabgrass, Large ([3]; 31 g ai/ha, scale 0 to 100): 10 | Crabgrass, Large plant response rating ([3]; 62 g ai/ha): 25 | Crabgrass, Large plant response rating ([3]; 125 g ai/ha): 35 | Plant response rating, Galium ([4]; 16 g ai/ha, scale of 0 to 100): 80 | Plant response rating, Galium ([4]; 31 g ai/ha, scale 0 to 100): 85 | Galium plant response rating ([4]; 62 g ai/ha): 100 | Galium plant response rating ([4]; 125 g ai/ha): 100 | Plant response rating, Kochia (kochia (Kochia scoparia); 16 g ai/ha, scale of 0 to 100): 100 | Plant response rating, Kochia (kochia (Kochia scoparia); 31 g ai/ha, scale 0 to 100): 100 | Kochia plant response rating (kochia (Kochia scoparia); 62 g ai/ha): 100 | Kochia plant response rating (kochia (Kochia scoparia); 125 g ai/ha): 100 | Plant response rating, Lambsquarters ([5]; 16 g ai/ha, scale of 0 to 100): 40 | Plant response rating, Lambsquarters ([5]; 31 g ai/ha, scale 0 to 100): 60 | Lambsquarters plant response rating ([5]; 62 g ai/ha): 50 | Lambsquarters plant response rating ([5]; 125 g ai/ha): 85 | Plant response rating, Nutsedge, Yellow ([6]; 16 g ai/ha, scale of 0 to 100): 0 | Plant response rating, Nutsedge, Yellow ([6]; 31 g ai/ha, scale 0 to 100): 10 | Nutsedge, Yellow plant response rating ([6]; 62 g ai/ha): 10 | Nutsedge, Yellow plant response rating ([6]; 125 g ai/ha): 20 | Plant response rating, Oat, Wild ([7]; 16 g ai/ha, scale of 0 to 100): 5 | Plant response rating, Oat, Wild ([7]; 31 g ai/ha, scale 0 to 100): 5 | Oat, Wild plant response rating ([7]; 62 g ai/ha): 5 | Oat, Wild plant response rating ([7]; 125 g ai/ha): 5 | Plant response rating, Oilseed Rape ([8]; 16 g ai/ha, scale of 0 to 100): 5 | Plant response rating, Oilseed Rape ([8]; 31 g ai/ha, scale 0 to 100): 50 | Oilseed Rape plant response rating ([8]; 62 g ai/ha): 50 | Oilseed Rape plant response rating ([8]; 125 g ai/ha): 70 | Plant response rating, Ragweed ([9]; 16 g ai/ha, scale of 0 to 100): 35 | Plant response rating, Ragweed ([9]; 31 g ai/ha, scale 0 to 100): 40 | Ragweed plant response rating ([9]; 62 g ai/ha): 60 | Ragweed plant response rating ([9]; 125 g ai/ha): 70 | Plant response rating, Ryegrass, Italian ([10]; 16 g ai/ha, scale of 0 to 100): 10 | Plant response rating, Ryegrass, Italian ([10]; 31 g ai/ha, scale 0 to 100): 15 | Ryegrass, Italian plant response rating ([10]; 62 g ai/ha): 10 | Ryegrass, Italian plant response rating ([10]; 125 g ai/ha): 30 | Plant response rating, Soybean (soybean (Glycine max); 16 g ai/ha, scale of 0 to 100): 30 | Plant response rating, Soybean (soybean (Glycine max); 31 g ai/ha, scale 0 to 100): 40 | Soybean plant response rating (soybean (Glycine max); 62 g ai/ha): 70 | Soybean plant response rating (soybean (Glycine max); 125 g ai/ha): 75 | Plant response rating, Velvetleaf ([11]; 16 g ai/ha, scale of 0 to 100): 35 | Plant response rating, Velvetleaf ([11]; 31 g ai/ha, scale 0 to 100): 50 | Velvetleaf plant response rating [11]: 85 | Plant response rating, Waterhemp ([12]; 16 g ai/ha, scale of 0 to 100): 80 | Plant response rating, Waterhemp ([12]; 31 g ai/ha, scale 0 to 100): 85 | Waterhemp plant response rating [12]: 100 | Plant response rating, Wheat ([13]; 16 g ai/ha, scale of 0 to 100): 0 | Plant response rating, Wheat ([13]; 31 g ai/ha, scale 0 to 100): 0 | Wheat plant response rating [13]: 10
